The values that follow come from patent US3953442A (priority 1972, dated 1976).

For one data set, the system named is central nervous system. Nature of the data set: animal or person. The format is in vivo. Conditions: Mus musculus, read-out: Spontaneous pattern of activity (table head: LD50 in mg/kg).
In a further data set the test system is visceral pain. Nature of the data set: Analgesic effect, acetic acid induced visceral pain in the mouse (Koster and Anderson test). Conditions: oral, 30 min before acetic acid injection, 50% effective dose. The format is in vivo. As for the experimental part:
The compounds (I) are analgesic agents.
A visceral pain is induced in the mouse by intraperitonal injection of a dilute solution of acetic acid (Koster and Anderson test).
The animals, which are starved on the day before the experiment and separated into random batches of 5, are treated with the products under test thirty minutes before injection of the irritant. Treatment was always performed orally.
After the acetic acid solution is injected the animals show symptoms of pain (stretching of the abdomen with extension of the back feet) which are counted during two spells of 5 minutes for each lot: from the fifth to the tenth minute and from the fifteenth to the twentieth minute respectively after the acid is injected
The ED50 value is expressed in mg kg bodyweight

Data set [1] in a line: Acute toxicity (LD50) in the mouse. Conditions: in vivo. The procedure:
The compounds of the present invention are not very toxic. By way of example, with the mouse, the dose which causes the death of 50 % of the animals or (LD50) is about 400 mg/kg bodyweight by oral and sub-cutaneous administration in the case of 5862.

The structures appear in SMILES notation. Where two headings read alike, the source gives them in different places.

As to `CC(Cc1cn(-c2ccccc2)c2ccccc12)N1CCCCC1` (centres unmarked) [compound 5478], the ED50 in the data set on central nervous system (ip) and in the data set with visceral pain was 12.5 mg/kg in each case.
For `CNC(C)Cc1cn(-c2ccccc2)c2ccccc12` (centres unmarked) [compound 5479], the ED50 with central nervous system (ip) came to 2.5 mg/kg; with central nervous system (po), 25 mg/kg.
On the same counts, the results for `CC(Cc1cn(-c2ccccc2)c2ccccc12)N1CCCC1` (centres unmarked) [compound 5480] are 2.5 mg/kg and 12.5 mg/kg.
For the compound `CC(Cc1cn(-c2ccccc2)c2ccccc12)N1CCOCC1` (centres unmarked) [compound 5481], the ED50 in the data set on central nervous system (ip) came to 2.5 mg/kg; in the data set with visceral pain it was 12.5 mg/kg.
With `CC(Cc1cn(-c2ccccc2)c2ccccc12)N(C)C` (centres unmarked) [compound 5483], the ED50 was determined as 5 mg/kg with central nervous system (ip), 25 mg/kg in the data set with central nervous system (po) and 12.5 mg/kg in the data set with visceral pain.
In the case of `CNC(C)Cc1cn(-c2ccc(OC)cc2)c2ccccc12` (centres unmarked) [compound 5772], the ED50 in the data set with central nervous system (ip) worked out at 25 mg/kg.
On to `COc1ccc(-n2cc(CC(C)N(C)C)c3ccccc32)cc1` (centres unmarked) [compound 5773], for which the figures for the ED50 with central nervous system (ip), in the data set with central nervous system (po) and with visceral pain were 1.25 mg/kg, 40 mg/kg and 12.5 mg/kg, respectively.
In the case of `COc1ccc(-n2cc(CC(C)NC(C)C)c3ccccc32)cc1` (centres unmarked) [compound 5774, 1-(4-methoxyphenyl)-3-(2-isopropylaminopropyl)indole], the ED50 in the data set on central nervous system (ip) is 12.5 mg/kg.
Consider `COc1ccc(-n2cc(CC(C)N3CCCC3)c3ccccc32)cc1` (centres unmarked) [compound 5775], for which the ED50 with central nervous system (ip) was 1 mg/kg; in the data set with visceral pain, 25 mg/kg.
As to `COc1ccc(-n2cc(CC(C)N3CCCCC3)c3ccccc32)cc1` (centres unmarked) [compound 5776], the results for the ED50 in the data set with central nervous system (ip) and in the data set with central nervous system (po) were 5 mg/kg and 35 mg/kg, respectively.
Turning to `COc1ccc(-n2cc(CC(C)N3CCOCC3)c3ccccc32)cc1` (centres unmarked) [compound 5777], the ED50 in the data set with central nervous system (ip) turned out to be 25 mg/kg.
Regarding `CNC(C)Cc1cn(-c2ccc(Cl)cc2)c2ccccc12` (centres unmarked) [compound 5859], the ED50 in the data set with central nervous system (ip) came out at 5 mg/kg.
Regarding `CC(Cc1cn(-c2ccc(Cl)cc2)c2ccccc12)N(C)C` (centres unmarked) [compound 5860], the ED50 with central nervous system (ip) worked out at 5 mg/kg; in the data set on visceral pain, 25 mg/kg.
The compound `CC(Cc1cn(-c2ccc(Cl)cc2)c2ccccc12)N1CCCC1` (centres unmarked) [compound 5861] gave an ED50 in the data set on visceral pain of 25 mg/kg.
Turning to `CC(Cc1cn(-c2ccc(F)cc2)c2ccccc12)N1CCCC1.Cl` (centres unmarked) [compound 5862, 3-(2-pyrrolidinopropyl)-1-(4-fluorophenyl)indole hydrochloride], the ED50 in the data set on central nervous system (ip) amounted to 0.4 mg/kg; with visceral pain it was 3.12 mg/kg. Besides, the LD50 in data set [1] (oral) was roughly 400 mg/kg; in data set [1] (sc, sub-cutaneous), roughly 400 mg/kg.
Turning to `CNC(C)Cc1cn(-c2ccc(F)cc2)c2ccccc12` (centres unmarked) [compound 5863], the results for the ED50 in the data set on central nervous system (ip) and with visceral pain were 2 mg/kg and 6.25 mg/kg, respectively.
`CC(Cc1cn(-c2ccc(F)cc2)c2ccccc12)N(C)C` (centres unmarked) [compound 5864]: the ED50 turned out to be 2 mg/kg in the data set on central nervous system (ip) and 3.12 mg/kg in the data set on visceral pain.
Turning to `CNC(C)Cc1cn(-c2ccc(N)cc2)c2ccccc12` (centres unmarked) [compound 5935], the ED50 in the data set with central nervous system (ip) was 2.5 mg/kg.
With `CC(Cc1cn(-c2ccccc2Cl)c2ccccc12)N1CCCC1` (centres unmarked) [compound 5984], the ED50 came out at 0.25 mg/kg in the data set on central nervous system (ip) and 10 mg/kg in the data set with central nervous system (po).
In the case of `CC(Cc1cn(-c2ccccc2Cl)c2ccccc12)N(C)C` (centres unmarked) [compound 5987], the ED50 in the data set on central nervous system (ip) came out at 6 mg/kg; in the data set on central nervous system (po) it was 6.25 mg/kg; in the data set with visceral pain, 12.5 mg/kg.
For `CC(Cc1cn(-c2ccccc2F)c2ccccc12)N1CCCC1` (centres unmarked) [compound 5988], the ED50 in the data set with central nervous system (ip) amounted to 5 mg/kg; in the data set with visceral pain it was 12.5 mg/kg.
`CNC(C)Cc1cn(-c2ccccc2F)c2ccccc12` (centres unmarked) [compound 6050]: in the data set with central nervous system (ip), the ED50 is 12.5 mg/kg.
Turning to `CNC(C)Cc1cn(-c2ccccc2Cl)c2ccccc12` (centres unmarked) [compound 6051], the results for the ED50 in the data set with central nervous system (ip) and with visceral pain were 5 mg/kg and 50 mg/kg, respectively.
`COc1ccc2c(c1)c(CC(C)N1CCCC1)cn2-c1ccccc1` (centres unmarked) [compound 6066]: the ED50 in the data set on central nervous system (ip) was 10 mg/kg.
Consider `CC(Cc1cn(-c2cccnc2)c2ccccc12)N(C)C` (centres unmarked) [compound 6097], for which the ED50 with central nervous system (ip) came to 10 mg/kg.
As to `CC(Cc1cn(-c2ccccn2)c2ccccc12)N(C)C` (centres unmarked) [compound 6099], the ED50 in the data set with central nervous system (ip) worked out at 50 mg/kg.
`CC(Cc1cn(-c2ccccn2)c2ccccc12)N1CCCC1` (centres unmarked) [compound 6102]: the ED50 with central nervous system (ip) is 12.5 mg/kg.
As for `CNC(C)Cc1cn(-c2ccccn2)c2ccccc12` (centres unmarked) [compound 6104], in the data set on central nervous system (ip), the ED50 was determined as 25 mg/kg.
On to `CC(Cc1cn(-c2ccc(F)cc2)c2ccc(Cl)cc12)N1CCCC1` (centres unmarked) [compound 6112, 5-chloro-1-(4-fluorophenyl)-3-(2-pyrrolidinopropyl)indole], for which the ED50 with central nervous system (ip) worked out at 0.4 mg/kg; in the data set on visceral pain, 0.75 mg/kg. Further, the LD50 in data set [1] (oral) is greater than 800 mg/kg; in data set [1] (sc, sub-cutaneous) it was 400 to 800 mg/kg.
Take `CC(Cc1cn(-c2ccccc2)c2ccc(F)cc12)N1CCCC1` (centres unmarked) [compound 6116]: in the data set with central nervous system (ip), the ED50 stood at 0.25 mg/kg. In addition, the LD50 in data set [1] (sc, sub-cutaneous) is greater than 1000 mg/kg.
`CC(Cc1cn(-c2ccc(F)cc2)c2ccc(F)cc12)N1CCCC1` (centres unmarked) [compound 6250]: the ED50 in the data set with central nervous system (ip) amounted to 0.8 mg/kg; in the data set with central nervous system (po), 3.12 mg/kg.
With `CC(Cc1cn(-c2ccc(Cl)cc2)c2ccc(F)cc12)N1CCCC1` (centres unmarked) [compound 6251], the ED50 came to 9 mg/kg in the data set with central nervous system (ip), 25 mg/kg in the data set on central nervous system (po) and 12.5 mg/kg in the data set with visceral pain.
In the case of `CC(N)Cc1cn(-c2ccc(F)cc2)c2ccccc12` (centres unmarked) [compound 6254], the ED50 in the data set on central nervous system (ip) amounted to 80 mg/kg.
With `CC(Cc1cn(-c2ccc(Cl)cc2)c2ccc(F)cc12)N(C)C` (centres unmarked) [compound 6264], in the data set with central nervous system (ip), the ED50 is 20 mg/kg.
For the compound `CC(Cc1cn(-c2ccccc2)c2ccc(F)cc12)N(C)C` (centres unmarked) [compound 6265], in the data set with central nervous system (ip), the ED50 was 20 mg/kg.
As to `CC(Cc1cn(-c2ccc(F)cc2)c2ccc(Cl)cc12)N(C)C` (centres unmarked) [compound 6268], the ED50 in the data set with central nervous system (ip) came to 6.25 mg/kg.
Consider `CC(Cc1cn(-c2ccc(F)cc2)c2ccc(F)cc12)N(C)C` (centres unmarked) [compound 6269], for which the ED50 in the data set on central nervous system (ip) and in the data set on visceral pain was 6.25 mg/kg throughout.
As to `COc1ccc2c(c1)c(CC(C)N1CCCC1)cn2-c1ccc(F)cc1` (centres unmarked) [compound 6270], in the data set with central nervous system (ip), the ED50 was determined as 3.12 mg/kg.
With `COc1ccc2c(c1)c(CC(C)N(C)C)cn2-c1ccccc1` (centres unmarked) [compound 6271], the ED50 with central nervous system (ip) was 12.5 mg/kg.

As a reminder, the LD50 is the dose at which mortality reaches 50%. High values mean a less toxic substance, low ones a more toxic substance.
